Results from patent US6403626B1, “Benzimidazole derivatives” (Synaptic Pharmaceutical Corporation, priority 1994, dated 2002).
Counter-ions that a name gives are not always drawn. Like-named read-outs stand apart in the source and are kept apart here.

What was measured:
[1] = molecular target: T1, α1A Human Adrenergic Receptor (Homo sapiens, UniProt P25100); assay: Equilibrium competition binding, [3H] prazosin, membranes of transfected LM(tk-) cells
T1 construct: expressed in transfected cells; host or cells: LM(tk-) cells
T1 sequence (P25100 1-572): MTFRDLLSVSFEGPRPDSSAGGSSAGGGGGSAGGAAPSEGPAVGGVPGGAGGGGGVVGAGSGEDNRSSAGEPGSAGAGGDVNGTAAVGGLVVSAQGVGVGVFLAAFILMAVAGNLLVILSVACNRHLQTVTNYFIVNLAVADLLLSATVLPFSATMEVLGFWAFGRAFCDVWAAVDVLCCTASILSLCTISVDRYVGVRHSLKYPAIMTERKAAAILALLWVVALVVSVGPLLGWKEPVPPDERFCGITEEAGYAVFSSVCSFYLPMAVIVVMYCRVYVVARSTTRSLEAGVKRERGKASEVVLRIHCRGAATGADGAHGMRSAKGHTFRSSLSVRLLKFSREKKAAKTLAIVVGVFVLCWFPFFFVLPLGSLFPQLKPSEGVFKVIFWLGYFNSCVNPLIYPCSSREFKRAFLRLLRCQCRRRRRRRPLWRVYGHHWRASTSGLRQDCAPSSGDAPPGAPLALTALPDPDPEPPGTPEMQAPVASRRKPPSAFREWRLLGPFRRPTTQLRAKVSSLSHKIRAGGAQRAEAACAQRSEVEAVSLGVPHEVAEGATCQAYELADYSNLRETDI
Description: (§1) Binding and functional assays were performed using stably transfected human alpha adrenergic receptors. Equilibrium competition binding assays were performed with membrane preparations from cultured LM(tk-) cells stably transfected with the cloned human adrenoceptor subtypes except for α2b, which was expressed in Y-1 cells, using [^3H] prazosin for α1 receptors and [^3H] rauwolscine for α2 receptors.
(§2) Transfected cells from culture flasks were scraped into 5 ml of 5 mM Tris-HCl, 5 mM EDTA, pH 7.5, and lysed by sonication. The cell lysates were centrifuged at 1000 rpm for 5 min at 4° C., and the supernatant was centrifuged at 30,000×g for 20 min at 4° C. The pellet was suspended in 50 mM Tris-HCl, 1 mM MgCl2, and 0.1% ascorbic acid at pH 7.5. Binding of α2 antagonist [^3H] rauwolscine ([…]) to membrane preparations of LM(tk-) cells was done in a final volume of 0.25 ml and incubated at 37° C. for 20 min. Nonspecific binding was determined in the presence of 10 μM phentolamine. The reaction was stopped by filtration through GF/B filters using a cell harvester.
(§3) Stable cell lines were selected as described above.

[2] = molecular target: T2, α1B Human Adrenergic Receptor (Homo sapiens, UniProt P35368); assay: as above; details: cloned human receptor, [3H] prazosin
T2 construct: The entire coding region of α1B(1563 bp); expressed in transfected cells; host or cells: LM(tk-) cells
T2 sequence (P35368 1-520): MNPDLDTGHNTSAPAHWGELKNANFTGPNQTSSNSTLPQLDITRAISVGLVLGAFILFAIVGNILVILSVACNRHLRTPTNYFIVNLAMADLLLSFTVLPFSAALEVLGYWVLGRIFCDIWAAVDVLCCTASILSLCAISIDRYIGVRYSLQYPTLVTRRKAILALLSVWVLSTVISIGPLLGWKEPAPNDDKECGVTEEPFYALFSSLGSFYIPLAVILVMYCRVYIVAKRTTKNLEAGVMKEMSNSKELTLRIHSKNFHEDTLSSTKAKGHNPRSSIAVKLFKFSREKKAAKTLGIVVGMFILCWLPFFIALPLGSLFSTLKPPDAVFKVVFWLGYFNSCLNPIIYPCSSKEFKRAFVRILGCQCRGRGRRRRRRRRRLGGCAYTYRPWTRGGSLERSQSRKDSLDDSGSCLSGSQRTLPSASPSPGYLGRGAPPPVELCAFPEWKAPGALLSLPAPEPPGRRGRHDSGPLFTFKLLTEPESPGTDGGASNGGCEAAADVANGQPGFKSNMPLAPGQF
Description: as §1, §2
The construct involved ligating the full-length containing EcoRI brainstem cDNA fragment from ZapII into the expression vector. The stable cell lines were selected as described above.

[3] = molecular target: T3, α2B Human Adrenergic Receptor (Homo sapiens, UniProt P18089); assay: Equilibrium competition binding, [3H] rauwolscine, membranes of transfected Y-1 cells
T3 construct: expressed in transfected cells; host or cells: Y-1 cells
T3 sequence (P18089 1-450): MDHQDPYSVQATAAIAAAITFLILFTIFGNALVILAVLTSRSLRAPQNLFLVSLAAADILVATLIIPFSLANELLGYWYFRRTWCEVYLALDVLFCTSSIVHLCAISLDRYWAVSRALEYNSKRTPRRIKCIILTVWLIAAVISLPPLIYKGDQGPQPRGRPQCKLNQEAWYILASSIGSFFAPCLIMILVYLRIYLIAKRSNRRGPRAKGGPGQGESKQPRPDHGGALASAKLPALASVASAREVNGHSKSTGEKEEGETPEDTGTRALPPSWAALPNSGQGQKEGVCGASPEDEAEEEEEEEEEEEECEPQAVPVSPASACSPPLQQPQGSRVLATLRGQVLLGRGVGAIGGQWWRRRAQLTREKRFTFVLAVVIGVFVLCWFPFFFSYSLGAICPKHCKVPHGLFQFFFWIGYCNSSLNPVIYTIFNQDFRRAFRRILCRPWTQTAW
Description: as §1, §3, §2

[4] = molecular target: T3, α2B Human Adrenergic Receptor; type: cell-based
Description: as §1, §3
(§4) The agonist activity (expressed as pEC50) was measured as a function of the ability to inhibit the forskolin-stimulated synthesis of cyclic adenosine monophosphate (cAMP). The stably transfected cells were incubated in Ham's F10 with 5 mM theophylline, 10 mM HEPES, 10 μM pargyline, and/or appropriate concentrations of forskolin for 20 min at 37° C. in 5% CO2. The tested compounds were then added to a final concentration of 0.001 nM to 1 μM and incubated for an additional 15 min at 37° C. in 5% CO2. The medium was aspirated and the reaction was stopped by the addition of 100 mM HCl . […] The plates are stored at 4° C. for 15 min and assayed to determine the linear concentration of cAMP. The appropriate dilution is interpolated from the standard curve of cold cAMP. The assessment of cAMP formation is determined by radioimmunoassay (cAMP radioimmunoassay kit; Advanced Magnetics, Cambridge, Mass.). Radioactivity was quantified using a Packard COBRA Auto Gamma counter, equipped with data reduction software.

[5] = molecular target: T4, α2C Human Adrenergic Receptor (Homo sapiens, UniProt P18825); assay: Equilibrium competition binding, [3H] rauwolscine, membranes of transfected LM(tk-) cells
T4 sequence (P18825 1-462): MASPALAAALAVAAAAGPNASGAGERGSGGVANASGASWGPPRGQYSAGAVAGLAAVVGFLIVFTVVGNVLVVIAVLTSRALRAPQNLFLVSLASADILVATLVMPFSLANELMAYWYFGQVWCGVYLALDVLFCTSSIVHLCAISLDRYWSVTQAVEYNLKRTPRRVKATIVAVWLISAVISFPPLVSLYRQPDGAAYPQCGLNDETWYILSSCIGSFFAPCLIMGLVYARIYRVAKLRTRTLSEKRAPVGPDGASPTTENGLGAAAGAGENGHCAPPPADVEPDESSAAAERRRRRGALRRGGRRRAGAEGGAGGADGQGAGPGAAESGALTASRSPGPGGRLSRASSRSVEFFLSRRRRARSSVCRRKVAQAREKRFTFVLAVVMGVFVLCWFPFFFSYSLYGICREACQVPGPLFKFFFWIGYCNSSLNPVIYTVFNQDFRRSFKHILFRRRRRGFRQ

[6] = molecular target: T4, α2C Human Adrenergic Receptor; type: cell-based; set-up: The entire coding region of α2C (1383 bp), including 2 bp of 5′ UT and 400 bp of 3′ UT; expressed in transfected cells; host or cells: LM(tk-) cells; details: for I.A Alpha-2 C: functional cAMP assay
Description: as §1
The insert housing this coding region was an @ 1.8 kb Ncol/EcoRI human spleen genomic fragment which was end-blunted by either T4 polymerase or Klenow fragment of DNA polymerase. Stable cell lines were selected as described above.
as §4

[7] = cloned human receptor, [3H] rauwolscine, read-out: pKi Alpha-2 B (converted)
[8] = inhibition of forskolin-stimulated cAMP, NA: Not Active, read-out: pEC50 Alpha-2 C (converted)

Structure (SMILES) | melting point [°C] | Ki [3] [nM] | Ki [5] [nM] | I.A Alpha-2 C [6] | other results
c1nc2ccc(NC3=NCCN3)cc2[nH]1 (as salt: fumarate) [Example 1, 5-(2-Imidazolin-2-ylamino)Benzimidazole] | 196 to 198 |  |  |  | 
Brc1c(NC2=NCCN2)ccc2nc[nH]c12 (as salt: fumarate) [Example 2, 4-Bromo-5-(2-imidazolin-2-ylamino)Benzimidazole] | 199 to 202 |  |  |  | 
Clc1c(NC2=NCCN2)ccc2nc[nH]c12 (as salt: fumarate) [Example 3, 4-Chloro-5-(2-imidazolin-2-ylamino)Benzimidazole] | 207 to 208 |  |  |  | 
Ic1c(NC2=NCCN2)ccc2nc[nH]c12 (as salt: fumarate) [Example 5, 4-Iodo-5-(2-imidazolin-2-ylamino)Benzimidazole] | 256 |  |  |  | 
CCc1c(NC2=NCCN2)ccc2nc[nH]c12 (as salt: fumarate) [Example 6, 4-Ethyl-5-(2-imidazolin-2-ylamino)Benzimidazole] | 238 to 239 |  |  |  | 
CCCCc1c(NC2=NCCN2)ccc2nc[nH]c12 (as salt: fumarate) [Example 8, 4-n-Butyl-5-(2-imidazolin-2-ylamino)Benzimidazole] | 96 |  |  |  | 
Clc1cccc(Cl)c1N=C1NCCN1 [Clonidine, reference compound] |  |  |  |  | Ki ([1]; cloned human receptor, [3H] prazosin, read-out: pKi Alpha-1 A (converted)): 513 nM; pKi Alpha-1 B [2]: 5.62
CCc1c(NC2=NCCN2)ccc2nc[nH]c12 [Example 6, 4-Ethyl-5-(2-imidazolin-2-ylamino)Benzimidazole] |  | 22.4 | 47.9 | 1.00 | EC50 [4]: 22.4 nM; I.A Alpha-2 B [4]: 1.00; EC50 [6]: 3.98 nM
CCCn1cnc2cc(NC3=NCCN3)ccc21 [Example 13, 1-Propyl-5-(2-imidazolin-2-ylamino)Benzimidazole] |  | 363 | 398 |  | Ki [1]: 10500 nM; Ki ([2]; read-out: pKi Alpha-1 B (converted)): 93300 nM
CC(C)n1cnc2c(I)c(NC3=NCCN3)ccc21 [Example 19, 1-lsopropyl-4-Iodo-5-(2-imidazolin-2-ylamino)Benzimidazole] |  |  | 129 |  | Ki [3, 7]: 214 nM
Brc1c(NC2=NCCN2)ccc2c1ncn2CC1CCCCC1 [Example 30, 1-Cyclohexylmethyl-4-bromo-5-(2-imidazolin-2-ylamino)Benzimidazole] |  |  | 309 |  | Ki [3, 7]: 166 nM
COc1cccc(Cn2cnc3c(Br)c(NC4=NCCN4)ccc32)c1 [Example 37, 1-(3-Methoxybenzyl)-4-bromo-5-(2-imidazolin-2-ylamino)Benzimidazole] |  |  | 117 | 0.50 | Ki [3, 7]: 81.3 nM; EC50 [6, 8]: 52.5 nM
Brc1c(NC2=NCCN2)ccc2nc(C3CC3)[nH]c12 [Example 47, 2-Cyclopropyl-4-bromo-5-(2-imidazolin-2-ylamino)Benzimidazole] |  | 44.7 | 224 |  | EC50 [4]: 115 nM; EC50 [6]: 45.7 nM
Cc1cc2nc[nH]c2cc1NC1=NCCN1 [Example 49, 6-Methyl-5-(2-imidazolin-2-ylamino)Benzimidazole] |  | 36.3 |  | 1.00 | 
Brc1cc(NC2=NCCN2)cc2[nH]cnc12 [Example 51, 7-Bromo-5-(2-imidazolin-2-ylamino)Benzimidazole] |  | 27.5 | 123 | 1.00 | EC50 [4]: 89.1 nM; I.A Alpha-2 B [4]: 0.60; EC50 [6]: 4.27 nM
Cc1cc(NC2=NCCN2)cc2[nH]cnc12 [Example 52, 7-Methyl-5-(2-imidazolin-2-ylamino)Benzimidazole] |  | 77.6 |  | 1.00 | EC50 [4]: 72.4 nM; I.A Alpha-2 B [4]: 0.80
CCc1cc(NC2=NCCN2)cc2[nH]cnc12 [Example 55, 7-Ethyl-5-(2-imidazolin-2-ylamino)Benzimidazole] |  | 209 | 427 | 0.80 | EC50 [6, 8]: 162 nM
c1ccc(-c2cc(NC3=NCCN3)cc3[nH]cnc23)cc1 [Example 57, 7-Phenyl-5-(2-imidazolin-2-ylamino)Benzimidazole] |  |  | 135 |  | Ki [3, 7]: 60.3 nM; I.A Alpha-2 B ([4]; functional cAMP assay): 1.00; EC50 ([4]; inhibition of forskolin-stimulated cAMP, NA: Not Active, read-out: pEC50 Alpha-2 B (converted)): 8510 nM; EC50 [6, 8]: 15.1 nM
